Laboratory results taken from US5290347A, “Salt-forming type dye, and its concentrated solution composition and ink composition” (Orient Chemical Industries, Ltd., priority 1991, dated 1994).

Key:
[1] = Solubility of the salt-forming type dyes (Tables 1-3); type: physicochemical; conditions: for Solubility, Ethanol: solvent: ethanol; for Solubility, Glycol ether: solvent: glycol ether
[2] = Solubility of the comparative dyes (Table 4), evaluation A-D; type: physicochemical; conditions: for Solubility, Glycol ether: solvent: glycol ether; for Solubility, Lower alcohol: solvent: lower alcohol; for Solubility, Water: solvent: water

SMILES | Solubility, Water:Solvent = 2:8 [1] [g/100 ml] | Solubility, Ethanol [1] [g/100 ml] | Solubility, Glycol ether [1] [g/100 ml] | Solubility, Water:Solvent = 2:8 [2] | Solubility, Glycol ether [2] | Solubility, Lower alcohol [2] | Solubility, Water [2]
COc1cc(N=Nc2cccc(P(=O)(O)O)c2)c(C)cc1N=Nc1c(S(=O)(=O)O)cc2ccc(N)cc2c1O [Black No. 2] | 10 | 5 | 15 |  |  |  | 
Nc1cc2c(O)c(N=Nc3ccc(N=Nc4cccc(P(=O)(O)O)c4)c4ccc(S(=O)(=O)O)cc34)c(S(=O)(=O)O)cc2cc1S(=O)(=O)O [Black No. 4] | 30 | 5 | 30 |  |  |  | 
Cc1nn(-c2ccccc2)c(O)c1N=Nc1cccc(S(=O)(=O)O)c1 [compound 2] |  |  |  | C (dissolved in an amount of 5% or less) | B (dissolved in an amount of 5~10%) | C (dissolved in an amount of 5% or less) | D (dissolved in an amount of 1% or less)
Nc1ccc2cc(S(=O)(=O)O)c(N=Nc3ccc(N=Nc4cccc(P(=O)(O)O)c4)c4ccc(S(=O)(=O)O)cc34)c(O)c2c1 [Black No. 8] | 20 | 8 | 30 |  |  |  | 
Nc1cc(S(=O)(=O)O)cc2cc(S(=O)(=O)O)c(N=Nc3ccc(N=Nc4cccc(S(=O)(=O)O)c4)c4ccccc34)c(O)c12 [compound 8] |  |  |  | D (dissolved in an amount of 1% or less) | B (dissolved in an amount of 5~10%) | C (dissolved in an amount of 5% or less) | D (dissolved in an amount of 1% or less)
O=P(O)(O)c1cccc(N=Nc2c(S(=O)(=O)O)cc3cc(Nc4ccc5c(O)c(N=Nc6cccc(P(=O)(O)O)c6)c(S(=O)(=O)O)cc5c4)ccc3c2O)c1 [Red No. 3] | 30 | 5 | 25 |  |  |  | 
Nc1cc2c(O)c(N=Nc3ccc(N=Nc4cccc(P(=O)(O)O)c4)c4ccc(S(=O)(=O)O)cc34)c(S(=O)(=O)O)cc2cc1S(=O)(=O)O [Black No. 5] | 10 | 10 | 30 |  |  |  | 
COc1cc(N=Nc2cccc(P(=O)(O)O)c2)c(C)cc1N=Nc1c(S(=O)(=O)O)cc2ccc(N)cc2c1O [Black No. 1] | 15 | 3 | 10 |  |  |  | 
Nc1cc2c(O)c(N=Nc3ccc(N=Nc4cccc(P(=O)(O)O)c4)c4ccc(S(=O)(=O)O)cc34)c(S(=O)(=O)O)cc2cc1S(=O)(=O)O [compound 5] |  |  |  | D (dissolved in an amount of 1% or less) | C (dissolved in an amount of 5% or less) | D (dissolved in an amount of 1% or less) | A (dissolved in an amount of 10% or more)
O=P(O)(O)c1cccc(N=Nc2ccc(N=Nc3c(O)ccc4cc(S(=O)(=O)O)cc(S(=O)(=O)O)c34)cc2)c1 [compound 4] |  |  |  | C (dissolved in an amount of 5% or less) | C (dissolved in an amount of 5% or less) | D (dissolved in an amount of 1% or less) | A (dissolved in an amount of 10% or more)
Nc1ccc2cc(S(=O)(=O)O)c(N=Nc3ccc(N=Nc4cccc(P(=O)(O)O)c4)c4ccc(S(=O)(=O)O)cc34)c(O)c2c1 [Black No. 3] | 20 | 5 | 30 |  |  |  | 
Nc1cc(N=Nc2cccc(P(=O)(O)O)c2)c2c(O)cc(S(=O)(=O)O)cc2c1N=Nc1cccc(P(=O)(O)O)c1 [Red No. 4] | 30 | 3 | 30 |  |  |  | 
CC(=O)Nc1cc(S(=O)(=O)O)cc2cc(S(=O)(=O)O)c(N=Nc3cccc(P(=O)(O)O)c3)c(O)c12 [compound 7] |  |  |  | C (dissolved in an amount of 5% or less) | D (dissolved in an amount of 1% or less) | D (dissolved in an amount of 1% or less) | A (dissolved in an amount of 10% or more)
Nc1cc(S(=O)(=O)O)cc2cc(S(=O)(=O)O)c(N=Nc3ccc(N=Nc4cccc(P(=O)(O)O)c4)c4ccc(O)cc34)c(O)c12 [Blue No. 2] | 30 | 5 | 25 |  |  |  | 
CC1(C)Nc2cccc3c(N=Nc4cc(S(=O)(=O)O)cc5cc(S(=O)(=O)O)c(N=Nc6cccc(P(=O)(O)O)c6)c(O)c45)ccc(c23)N1 [Black No. 6] | 10 | 10 | 15 |  |  |  | 
Nc1ccc2cc(S(=O)(=O)O)cc(O)c2c1N=Nc1cc(S(=O)(=O)O)cc2cc(S(=O)(=O)O)c(N=Nc3cccc(P(=O)(O)O)c3)c(O)c12 [Black No. 7] | 30 | 3 | 20 |  |  |  | 
Nc1cc(S(=O)(=O)O)cc2cc(S(=O)(=O)O)c(N=Nc3ccc(N=Nc4cccc(S(=O)(=O)O)c4)c4ccc(O)cc34)c(O)c12 [compound 3] |  |  |  | C (dissolved in an amount of 5% or less) | D (dissolved in an amount of 1% or less) | D (dissolved in an amount of 1% or less) | A (dissolved in an amount of 10% or more)
O=P(O)(O)c1cccc(N=Nc2ccc(N=Nc3c(O)ccc4cc(S(=O)(=O)O)cc(S(=O)(=O)O)c34)cc2)c1 [Red No. 1] | 30 | 10 | 20 |  |  |  | 
Nc1cc2c(O)c(N=Nc3ccc(N=Nc4cccc(P(=O)(O)O)c4)c4ccc(S(=O)(=O)O)cc34)c(S(=O)(=O)O)cc2cc1S(=O)(=O)O [compound 6] |  |  |  | C (dissolved in an amount of 5% or less) | B (dissolved in an amount of 5~10%) | C (dissolved in an amount of 5% or less) | C (dissolved in an amount of 5% or less)
COc1cc(N=Nc2cccc(P(=O)(O)O)c2)c(C)cc1N=Nc1c(S(=O)(=O)O)cc2cc(S(=O)(=O)O)cc(N)c2c1O [Blue No. 3] | 25 | 10 | 30 |  |  |  | 
Nc1c(N=Nc2cccc(P(=O)(O)O)c2)c(S(=O)(=O)O)cc2cc(S(=O)(=O)O)c(N=Nc3cccc(P(=O)(O)O)c3)c(O)c12 [Blue No. 1] | 30 | 3 | 25 |  |  |  | 
CC(=O)Nc1cc(S(=O)(=O)O)cc2cc(S(=O)(=O)O)c(N=Nc3cccc(P(=O)(O)O)c3)c(O)c12 [Red No. 2] | 30 | 8 | 25 |  |  |  | 
Cc1nn(-c2ccccc2)c(O)c1N=Nc1cccc(P(=O)(O)O)c1 [compound 1] |  |  |  | C (dissolved in an amount of 5% or less) | C (dissolved in an amount of 5% or less) | D (dissolved in an amount of 1% or less) | D (dissolved in an amount of 1% or less)
